The source made the active and inactive calls.
How the values were obtained:
[1] = inhibitors of intracellular T. cruzi replication, confirmation, NIH3T3 host cells, beta-gal luminescence (AID 2044); format: functional, cell-based;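 further: intracellular parasites grown in NIH/3T3 mouse fibroblasts as host cells; luminescent beta-galactosidase reporter signal from transgenic T. cruzi replicating inside host cells; inhibitors lower the luminescence signal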
Streptococcus = assay: Group A Streptococcus viability loss, dose response, counter-screen for streptokinase expression inhibitor project, luminescence, BacTiterGlo (AID 1915); format: functional, organism-based;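 further: potency for reduction of bacterial viability or growth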
[2] = target: T1, Apoptotic protease-activating factor 1 (Homo sapiens, UniProt O14727); format: functional
T1 sequence (O14727 whole entry): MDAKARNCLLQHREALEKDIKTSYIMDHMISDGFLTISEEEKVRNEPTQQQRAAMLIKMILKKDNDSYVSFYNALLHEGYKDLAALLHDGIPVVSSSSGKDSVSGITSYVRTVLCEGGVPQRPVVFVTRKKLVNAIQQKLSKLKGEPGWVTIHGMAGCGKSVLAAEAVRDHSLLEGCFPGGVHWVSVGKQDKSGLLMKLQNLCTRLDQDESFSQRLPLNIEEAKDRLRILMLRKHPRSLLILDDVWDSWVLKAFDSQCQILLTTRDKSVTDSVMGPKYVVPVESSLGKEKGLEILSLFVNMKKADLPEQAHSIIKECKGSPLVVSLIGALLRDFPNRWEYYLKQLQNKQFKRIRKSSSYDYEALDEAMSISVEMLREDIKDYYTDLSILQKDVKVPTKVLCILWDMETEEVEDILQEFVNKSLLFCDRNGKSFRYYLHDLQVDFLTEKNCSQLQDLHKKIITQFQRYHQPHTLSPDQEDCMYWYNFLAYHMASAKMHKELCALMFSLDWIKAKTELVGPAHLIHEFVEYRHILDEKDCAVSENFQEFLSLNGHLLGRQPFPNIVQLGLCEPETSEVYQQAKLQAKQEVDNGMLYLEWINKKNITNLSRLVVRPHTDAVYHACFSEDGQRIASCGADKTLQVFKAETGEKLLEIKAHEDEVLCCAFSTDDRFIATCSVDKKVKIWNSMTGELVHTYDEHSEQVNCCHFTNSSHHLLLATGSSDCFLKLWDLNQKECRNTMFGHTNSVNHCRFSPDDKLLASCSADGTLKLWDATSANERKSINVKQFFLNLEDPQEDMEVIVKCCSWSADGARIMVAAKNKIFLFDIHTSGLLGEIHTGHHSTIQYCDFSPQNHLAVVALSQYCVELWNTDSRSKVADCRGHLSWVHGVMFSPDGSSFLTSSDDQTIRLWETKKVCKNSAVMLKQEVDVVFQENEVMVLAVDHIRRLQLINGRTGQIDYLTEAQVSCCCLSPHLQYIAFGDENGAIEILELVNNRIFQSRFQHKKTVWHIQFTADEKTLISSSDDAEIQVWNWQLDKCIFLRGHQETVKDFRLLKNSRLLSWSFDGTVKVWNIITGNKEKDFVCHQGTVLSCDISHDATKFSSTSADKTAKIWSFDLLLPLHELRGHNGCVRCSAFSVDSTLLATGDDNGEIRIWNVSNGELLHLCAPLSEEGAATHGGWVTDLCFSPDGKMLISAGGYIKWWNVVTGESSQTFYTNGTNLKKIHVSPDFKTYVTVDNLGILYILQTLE

[3] = target: Induced myeloid leukemia cell differentiation protein Mcl-1 (Homo sapiens, UniProt Q07820); format: functional
[4] = target: T2, Sentrin-specific protease 6 (Homo sapiens, UniProt Q9GZR1); format: functional;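 further: Luminescence-based dose-response confirmatory assay of SENP6 inhibition, following up an ultra-high-throughput screen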
T2 sequence (Q9GZR1 whole entry): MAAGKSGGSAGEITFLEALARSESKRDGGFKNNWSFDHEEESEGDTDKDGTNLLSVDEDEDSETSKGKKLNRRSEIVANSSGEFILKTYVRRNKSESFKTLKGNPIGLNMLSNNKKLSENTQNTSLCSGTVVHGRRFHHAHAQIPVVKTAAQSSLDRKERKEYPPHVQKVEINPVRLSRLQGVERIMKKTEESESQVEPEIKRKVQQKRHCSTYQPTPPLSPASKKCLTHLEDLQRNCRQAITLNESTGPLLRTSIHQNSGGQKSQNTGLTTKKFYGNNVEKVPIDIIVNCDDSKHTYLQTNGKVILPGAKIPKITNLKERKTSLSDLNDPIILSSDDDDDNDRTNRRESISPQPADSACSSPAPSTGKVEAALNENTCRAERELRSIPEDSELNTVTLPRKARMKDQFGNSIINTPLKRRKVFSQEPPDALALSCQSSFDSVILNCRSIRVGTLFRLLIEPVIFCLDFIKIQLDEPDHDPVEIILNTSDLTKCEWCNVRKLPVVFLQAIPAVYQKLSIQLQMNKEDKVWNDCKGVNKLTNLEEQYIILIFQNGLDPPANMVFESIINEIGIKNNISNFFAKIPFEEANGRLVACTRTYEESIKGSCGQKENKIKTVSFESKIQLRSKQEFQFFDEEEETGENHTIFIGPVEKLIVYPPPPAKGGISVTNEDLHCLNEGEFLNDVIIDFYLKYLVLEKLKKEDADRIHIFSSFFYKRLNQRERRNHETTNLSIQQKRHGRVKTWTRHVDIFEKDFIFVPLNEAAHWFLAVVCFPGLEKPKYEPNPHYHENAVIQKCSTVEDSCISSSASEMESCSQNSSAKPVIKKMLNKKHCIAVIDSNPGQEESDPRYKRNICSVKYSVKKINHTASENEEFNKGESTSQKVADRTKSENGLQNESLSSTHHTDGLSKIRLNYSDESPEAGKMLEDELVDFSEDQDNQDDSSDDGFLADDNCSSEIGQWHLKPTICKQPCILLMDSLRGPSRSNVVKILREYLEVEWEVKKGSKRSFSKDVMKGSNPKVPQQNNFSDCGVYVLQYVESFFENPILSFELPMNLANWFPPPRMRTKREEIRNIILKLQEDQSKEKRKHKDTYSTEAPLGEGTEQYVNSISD

[5] = target: T3, Sentrin-specific protease 8 (Homo sapiens, UniProt Q96LD8); format: functional;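 further: luminescence read-out of SENP8 inhibition, dose-response confirmation following an ultra-high-throughput screen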
T3 sequence (Q96LD8 whole entry): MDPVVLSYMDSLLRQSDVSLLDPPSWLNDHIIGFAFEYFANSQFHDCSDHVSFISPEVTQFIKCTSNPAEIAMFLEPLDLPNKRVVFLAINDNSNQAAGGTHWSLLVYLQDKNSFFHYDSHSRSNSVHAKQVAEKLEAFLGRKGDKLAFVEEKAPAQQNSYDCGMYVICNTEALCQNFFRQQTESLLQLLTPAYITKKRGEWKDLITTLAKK

INS1 = assay: beta cell apoptosis inhibitors, cytokine rescue, dose response, luminescence, retest (AID 449756); format: functional, cell-based; conditions: Rattus norvegicus;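 further: cell death triggered by IL-1 beta plus TNF-alpha plus IFN-gamma mixture; protective hits raise ATP signal compared with cytokine alone wells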

Chain of Induced myeloid leukemia cell differentiation protein Mcl-1 (Q07820 whole entry): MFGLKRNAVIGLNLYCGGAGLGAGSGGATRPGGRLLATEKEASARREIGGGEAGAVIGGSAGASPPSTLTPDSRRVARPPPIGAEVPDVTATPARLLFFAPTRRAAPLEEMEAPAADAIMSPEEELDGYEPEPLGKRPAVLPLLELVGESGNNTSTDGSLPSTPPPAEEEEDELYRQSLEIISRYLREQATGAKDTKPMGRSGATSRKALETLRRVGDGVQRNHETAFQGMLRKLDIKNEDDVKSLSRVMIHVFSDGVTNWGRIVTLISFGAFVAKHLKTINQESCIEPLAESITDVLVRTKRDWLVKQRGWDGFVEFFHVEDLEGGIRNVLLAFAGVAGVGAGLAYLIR

| SMILES | EC50 [1] | EC50 (Streptococcus) | IC50 [2] | IC50 [3] | IC50 [4] | IC50 [5] | AC50 (INS1) |
| --- | --- | --- | --- | --- | --- | --- | --- |
| CCN1/C(=C/c2ccc3cc(C)ccc3[n+]2CC)Sc2cc(C)c(C)cc21 | < 0.1 µM (active) | 8.85 µM (active) | 23.9 µM (active) | – | – | – | – |
| COc1ccc(C(=O)Nc2nc3c(s2)Cc2cc(OC)ccc2-3)cc1 | – | – | 51.1 µM (active) | 3.75 µM (active) | 1.65 µM (active) | 2.29 µM (active) | – |
| Cc1oc2c(c1C(=O)c1ccccc1)C(=O)C(=O)c1ccccc1-2 | – | – | – | – | 6.87 µM (active) | 12.8 µM (active) | 2.71 µM (active) |
| O=C1CCCC2=C1C1(O)C(=O)c3ccccc3C1(O)O2 (centres undefined) | – | – | 13.1 µM (active) | – | – | – | – |
| O=C1C(Cl)=C(NCCN2CCCCC2)C(=O)c2ccccc21 | 0.509 µM (active) | – | 5.4 µM (active) | – | – | – | 4.41 µM (active) |
| O=C(O)COc1ccc(/C=N/NC(=O)c2ccc(-c3csc(Nc4ccc(Cl)cc4)n3)cc2)cc1 | – | – | – | 0.886 µM (active) | – | – | – |
| CC(/C=C1\SC(=S)N(NS(=O)(=O)c2ccccc2)C1=O)=C\c1ccccc1 | – | > 150 µM (not active) | – | 20.6 µM (active) | 2.64 µM (active) | 2.86 µM (active) | – |

— ChEMBL document CHEMBL1201862, “PubChem BioAssay data set” (2004)
